The test system of test [1] is human dorsal root ganglion neurons. In words: Calcium flux (ΔF/F) in human dorsal root ganglion neurons ex vivo, TRPV1/TRPA1 activation. It is filed as cell-based. The settings on record: calcium-sensitive dye, FIG. 1. As to the method: Selective TRPV1 and TRPA1 activation responses were measured for exemplary compositions of the invention in human dorsal root ganglion neurons ex vivo and compared with TRPV1/TRPA1 co-activation responses. The degree of neuron activation was assessed by inward calcium flux using neurons preloaded with a calcium-sensitive fluorescent dye. Intracellular cellular calcium levels were then monitored by wide-field fluorescent microscopy. The change in intracellular fluorescence relative to baseline fluorescence (ΔF/F) was quantified, and the results are shown in FIG. 1.

For test [2], the system named is flexor hallucis brevis muscle. Put plainly: Electrically induced flexor hallucis brevis cramp, surface EMG AUC over 140 seconds, additional beverage study (Example 3). The settings on record: 29 mg, 140 second observation period; FIG. 10. Format: in vivo, human. The procedure: An additional study was carried out comparing exemplary compounds and combinations thereof as summarized in Table 3 below, each administered as a beverage formulation.
Cramp intensity was assessed by integrating the area under the curve (AUC) of a surface EMG signal over a 140 second observation period post electrical induction of a cramp in the flexor hallucis brevis muscle as previously described. […] The overall change between the pre-treatment baseline and mean vehicle control response was minimal.

In test [3] the test system is flexor hallucis brevis muscle. Put plainly: Externally-induced cramping of the flexor hallucis brevis muscle, 6-shogaol orally disintegrating tablet (Example 4). The note with it: ODT. It is filed as in vivo, human. The procedure: The goal of this study was to assess the effectiveness of 6-shogaol formulated as an orally disintegrating tablet (ODT) in the prevention of externally-induced cramping of the flexor hallucis brevis muscle of the foot. The study was carried in two parts. The first part was an open label, placebo-controlled, 5-visit study evaluating vehicle (lactose and sucrose), 0.5 mg, 2.5 mg, 10/6.9 mg, and 40/33 mg 6-shogaol. The second part was a randomized, single-blind, placebo-controlled, 4-visit study evaluating vehicle (lactose and sucrose), 0.5 mg, 20/18.5 mg, and 60/55.5 mg 6-shogaol. Screening of subjects occurred within 28 days in a similar manner as described above in Example 1. Note that dosage values separated by a “/” indicate the nominal versus the actual doses as determined by Chromadex.
The collected EMG data was analyzed for the baseline adjusted integrated EMG (IEMG) level, also referred to as area under the curve (AUC), and cramp duration, as described in Example 1. FIG. 11 and FIG. 12 summarize the average change and ratio in AUC values for all subjects compared by administered treatment both parts of the study. […] The data in FIG. 15 and FIG. 16 further support these findings.

Some results are limits rather than exact numbers.

`CCCCC/C=C/C(=O)CCc1ccc(O)c(OC)c1` [Treatment 6-shogaol, 6-shogaol]: the “neuron activation response, change in intracellular fluorescence relative to baseline (ΔF/F)” value in test [1] was “synergistic response”. The “decrease in cramp intensity compared to other treatments tested” value in test [2] is on record as “greater decrease”. In addition, the “reduction in AUC compared to its study specific vehicle control” value in test [2] was found to be 5 fold. Moreover, the cramp inhibition result was “no efficacy” in test [3] (0.5 mg dosage level); “no efficacy” in test [3] (2.6 mg dosage level); “roughly 40%” in test [3] (6.9 mg); 75% in test [3] (33 mg dosage level); 75% in test [3] (55 mg dosage level). For the same compound, in test [3] (33 mg and 55 mg dosage levels), the “time over which cramp inhibition was sustained” value was at least 8 h.
As for `CCCCCC(O)CC(=O)CCc1ccc(O)c(OC)c1` (stereo not shown) [Treatment 6-gingerol, 6-gingerol], the “neuron activation response, change in intracellular fluorescence relative to baseline (ΔF/F)” value in test [1] is reported as “synergistic response”.

These data come from patent US20180116976A1, “METHODS AND COMPOSITIONS FOR UNWANTED OR ABNORMAL MUSCLE CONTRACTIONS” (Flex Pharma, Inc., priority 2015, published 2018).
